Data: patent publication US20220023315A1, “METHODS OF ACTIVATING MICROGLIAL CELLS” (THE RESEARCH FOUNDATION FOR THE STATE UNIVERSITY OF NEW YORK, priority 2018, published 2022)
“Also recorded” adds a separate entry of the source. One block for each compound: values may come before it.

Key:
BV2 cells [1] = assay: Phagocytosis of FITC-labeled amyloid beta (1-42), BV2 cells (flow cytometry, confocal); format: cell-based; conditions: for beta amyloid phagocytosis: BV2 cells, 16 hours, 3.75 μM, then 1 hour beta amyloid-FITC
Experimental: It was investigated if the enhanced phagocytic activity of microglia towards lysotracker and dead neurons extended to the enhanced phagocytosis of amyloid proteins. Flow cytometric assays were conducted to detect and compare the ability of SHIP inhibitor compounds to enhance the phagocytosis of amyloid beta 1-42 coupled to FITC. These assays provided a means to compare the ability of SHIP inhibitor compounds to promote a crucial effector function of microglia in the brain that is highly relevant for the pathology of Alzheimer's disease.
Cells were then washed twice and analyzed by flow cytometry for the presence of FITC-labeled amyloid beta (1-42). […] FIG. 7F-H show the confocal images of fixed BV2 cells incubated with beta amyloid with and without K161.

primary microglia [2] = assay: Phagocytosis of PI-stained dead neurons, primary microglia (flow cytometry); format: cell-based, mouse
Text: (§1) Next it was investigated if microglial can phagocytose dead neurons, and to what extent the phagocytosis of dead neurons is enhanced by SHIP inhibitors. Dead neurons were stained with propidium iodide. Propidium iodide is a fluorescent compound that binds to a cell's DNA and can be used to stain dead cells. The phagocytosis of propidium iodide (PI)-stained dead neurons by microglia was investigated by flow cytometry (FIG. 6). […] (FIG. 6C). […] Pan-SHIP inhibition increased phagocytic activity of microglial cells towards dead neurons.

[3] = Serum levels after single dose IP or oral gavage; format: in vivo, mice
Experimental: To assess oral bioavailability, K118 and K161 were administered in a single dose of 10 mg/kg either by IP or by oral gavage, and levels of each were measured in serum (FIG. 14).

primary microglia [4] = assay: Phagocytosis of FITC-labeled amyloid beta, primary microglia (flow cytometry); format: cell-based, mouse; conditions: 16 hours, 1.25 μM, then 1 hour beta amyloid-FITC
[5] = Detection of K161 in brain tissue by mass spectrometry after single dosing; format: in vivo; conditions: mice; for detection in brain tissue: 48 hr or 96 hr after administration, mass spectrometry
Experimental: Tissues were harvested 48 hr or 96 hr after administration, and K161 was detected by mass spectrometry and quantitated against a known concentration of K161 spiked into either serum or brain tissue homogenate (FIG. 13A). The calibration curves for K161 are shown in FIGS. 13B and 13C, with the added experimental data points in FIG. 13D. The concentrations of K161 in the brain tissue samples were calculated from the linear characteristics of the standard curve FIG. 13E.

[6] = system: p-mTOR (Ser2448) and p-S6 in BV2 cells; assay: Western blotting and intracellular flow of signaling kinases, BV2 cells; format: cell-based; conditions: for mTOR phosphorylation at Ser2448: microglia (BV2), Western blotting / icFlow
Experimental: (§2) Using both Western blotting and intracellular flow (icFlow) assays activation of key signaling kinases that are known to control proliferation, survival and effector functions in immune cells were examined. This included probing for phosphorylated forms of Akt, ERK, mTOR (p-mTOR) and S6 (p-S6). BV2 cells were incubated with a series of pan-SHIP inhibitors. […] In FIG. 8E, the effect of 3AC on BV2 cells is depicted, as assessed by Western Blotting, with actin and HSP90 as loading controls.

[7] = system: AKT, p-mTOR, p-S6 in primary microglia cells; assay: Expression of signaling kinases, primary microglia; format: cell-based, mouse
Experimental: as §2

[8] = system: CD11b+CD45low cell population (microglial cells) of the cerebral hemispheres; assay: K161-treated mice: phagocytic activity of brain cell populations; format: in vivo
Experimental: In a subsequent experiment, mice were treated twice a week for two weeks with K161. A single cell suspension of the cerebral hemispheres was prepared from K161 (10 mg/kg) and vehicle (H20)-treated mice (n=10/group). Mice were treated twice a week for two weeks, the brains harvested by flow cytometry (FIG. 12A). Box & whisker plots of frequency of single population gated on live cells singlets for markers CD11b, CD45 and ACSA2 (FIG. 12B). The ability of the various cell types to phagocytose dead neurons, beta amyloid and LysoTracker in the absence or presence of K61 are shown in FIG. 12I to 12K. A single cell suspension of the cerebral hemispheres was prepared from K161 (10 mg/kg) and vehicle (H2O)-treated mice (n=10/group). Mice were treated twice a week for two weeks, the brains harvested by flow cytometry. Box & whisker plots of dead neuron (FIG. 12I), beta amyloid (FIG. 12J) and lysotracker assay (FIG. 12K) are shown on a single brain population gated on live cells, singlets and surface markers CD11b, CD45 and ACSA2.
Therefore, SHIP inhibitors, and particularly those that inhibit both SHIP1 and SHIP2, or selectively SHIP2 (e.g., AS1949490—available from commercial suppliers such as Sigma Aldrich and Tocris), can increase microglial phagocytic capacity to remove dead neurons from the CNS.

BV2 cells [9] = assay: Phagocytosis of PI-stained dead neurons, BV2 cells (flow cytometry); format: cell-based; conditions: for phagocytosis of dead neurons, selective inhibitors alone or combined: BV2 cells (FIG. 6C)
Text: as §1

BV2 cells [10] = assay: LysoTracker Red staining of lysosomal/phagosomal compartment, BV2 cells (flow cytometry, confocal); format: cell-based; conditions: for LysoTrackerRed MFI (phagosomal compartment size): BV2 cells treated 16 hr, 3.75 μM and 5 μM, vs diluent control; for phagosomal compartment size (LysoTrackerRed staining): BV2 cells treated 20 hr, 50 nM LysoTrackerRed
Experimental: Flow cytometric assays were conducted to detect and compare the ability of SHIP inhibitor compounds to increase the phagocytic capacity of microglia as determined by LysoTracker Red staining which is preferentially retained and fluoresces in the acidic environment of the lysosomal/phagosomal subcellular compartment. BV2 cells were treated for 20 hr with 3AC, K118 or K149 at the indicated doses vs. their respective diluent controls, washed twice and incubated with 50 nM LysoTrackerRed and then analyzed by flow cytometry (FIG. 5). Histograms of the LysoTrackerRed staining for each compound at the indicated dose or their diluent control (0 μM) are shown. […] K118 repeated towards BV2 cells (FIG. 5D, 5E) and primary microglial cells (FIG. 5F, 5G). BV2 cells were treated for 16 hr with the indicated K118 concentration and incubated with LysoTrackerRed (50 nM), washed twice and then analyzed by flow cytometry and compared to similarly treated vs. their diluent control primary microglia (0.5% DMSO). Histograms of LysoTrackerRed staining for K118 (Red-3.75 μM, Green-5 μM) or diluent control (Blue, shaded) are shown. In FIG. 5E, line and whisker plots are shown for the mean fluorescence intensity (MFI) of LysoTrackerRed staining at the indicated concentrations of K118.
Pan-SHIP1/2 inhibition increased microglial lysosomal/phagosomal compartment.

BV2 cells [11] = assay: CCK-8 assay of cell growth, BV2 cells; format: cell-based; conditions: 48 hr
Experimental: (§3) The ability of 3AC, K118 and K149 to promote the proliferation of BV2 and SIM-A9 microglial cells was tested in vitro. Cells were counted with a cell counting kit-8 (e.g. CCK-8) which is a sensitive colorimetric assays for the determination of cell viability in cell proliferation and cytotoxicity assays. It uses the highly water-soluble tetrazolium salt, WST-8, which is reduced by dehydrogenase activities in cells to give a yellow-color formazan dye, which is soluble in the tissue culture media. The amount of the formazan dye, generated by the activities of dehydrogenases in cells, is directly proportional to the number of living cells.
(§4) A CCK-8 assay was performed for analysis of cell growth of BV2 cells (FIG. 4A), and SIM-A9 cells (FIG. 4B) vs. their respective vehicle controls (100%) at 48 hr. Each point represents the mean of the 6 replicates for each dose.

SIM-A9 cells [12] = assay: CCK-8 assay of cell growth, SIM-A9 cells; format: cell-based; conditions: 48 hr
Experimental: as §3, §4

SIM-A9 cells [13] = assay: Phagocytosis of PI-stained dead neurons, SIM-A9 cells (flow cytometry); format: cell-based; conditions: Torin with K161
Text: as §1

[14] = 10 mg/kg twice a week for two weeks, vs vehicle

Compound: C[C@@]12CCC[C@H]1C1CC[C@H]3C[C@H](N)[C@H](N)C[C@]3(C)[C@H]1CC2.Cl.Cl (stereo in doubt) [K161, (2R,3S,5S,8R,9S,10S,13S,14S)-10,13-dimethylhexadecahydro-1H-cyclopenta[a]phenanthrene-2,3-diaminium Chloride]
beta amyloid phagocytosis (BV2 cells [1]): Significant increases in beta amyloid phagocytosis; also recorded: significantly increased
phagosomal component, confocal images (BV2 cells [1]; fixed BV2 cells incubated with beta amyloid): the phagosomal component is increased
phagocytic activity towards dead neurons (primary microglia [2]; primary microglia, 16 hr, 1.25 μM): enhanced the phagocytic activity
decay in vivo, compared ([3]; mouse, in vivo, 10 mg/kg): decay more rapidly in vivo than K118
oral bioavailability ([3]; single dose 10 mg/kg IP or oral gavage, levels in serum): have oral bioavailability
beta amyloid phagocytosis (primary microglia [4]): Significant increases in beta amyloid phagocytosis
blood brain barrier penetration ([5]; 10 mg/kg IP or oral gavage): can penetrate the blood brain barrier
detection in brain tissue ([5]; 10 mg/kg IP): detectable in the brain tissue
detection in brain tissue ([5]; 10 mg/kg oral gavage): detectable in the brain tissue
p-S6 expression ([6]; BV2 cells): increase in p-S6 expression
p-mTOR (Ser2448) expression, mean fluorescence intensity ([6]; BV2 cells, 16 hr, intracellular flow): significantly increased p-MTOR expression
mTOR phosphorylation at Ser2448 [6]: increase mTOR phosphorylation at Ser2448
activation of AKT [7]: activated AKT
activation of p-S6 [7]: not p-mTOR or p-S6
activation of p-mTOR [7]: not p-mTOR or p-S6
ability to phagocytose beta amyloid, CD11b+CD45low cells [8, 14]: increased ability to phagocytose dead neurons and beta amyloid
ability to phagocytose dead neurons, CD11b+CD45low cells [8, 14]: increased ability to phagocytose dead neurons and beta amyloid
size of the phagosomal compartment in subsets of microglial cells in the brain ([8]; intraperitoneal injection twice a week for two weeks): increased the size of the phagosomal compartment

melting point: 161 to 169 °C
Compound: Cc1c(CCN)c2ccccc2n1Cc1ccccc1Cl.Cl

melting point: 193 to 195 °C
Compound: CC[C@H]1CC[C@H]2[C@@H]3C[C@@H](O)C4C[C@H](N)CC[C@]4(C)[C@H]3CC[C@]12C (stereo partly shown)

Compound: C[C@H](NC(=O)c1sccc1OCc1ccc(Cl)cc1)c1ccccc1 [AS1949490]
phagocytosis of dead neurons, selective inhibitors alone or combined (BV2 cells [9]): not either of those inhibitors alone, increased phagocytosis

Compound: CC(C)CCC[C@@H](C)[C@H]1CC[C@H]2[C@@H]3CCC4C[C@H](N)CC[C@]4(C)[C@H]3CC[C@]12C (stereo partly shown) [3AC]
phagocytosis of dead neurons, selective inhibitors alone or combined (BV2 cells [9]): not either of those inhibitors alone, increased phagocytosis
mTOR phosphorylation at Ser2448 [6]: increase mTOR phosphorylation at Ser2448
LysoTrackerRed MFI (phagosomal compartment size) (BV2 cells [10]): statistically significant increase in the phagosomal compartment size
phagosomal compartment size (LysoTrackerRed staining) (BV2 cells [10]): only a modest increase

Compound: CSc1ccc2c(c1)c(CCN)c(C)n2Cc1ccc(Cl)cc1Cl [K149]
cell growth vs. vehicle control (100%) (BV2 cells [11]): showed effects at 2.5, 3.75 and 5 μM concentrations
beta amyloid phagocytosis (BV2 cells [1]): Significant increases in beta amyloid phagocytosis; also recorded: significantly increased
cell growth (proliferation) vs. vehicle control (100%) (SIM-A9 cells [12]): an effect on proliferation was observed
mTOR phosphorylation at Ser2448 [6]: increase mTOR phosphorylation at Ser2448
LysoTrackerRed MFI (phagosomal compartment size) (BV2 cells [10]): statistically significant increase in the phagosomal compartment size
phagosomal compartment size (LysoTrackerRed staining) (BV2 cells [10]): robust increases

Compound: Torin
effect on K161-enhanced phagocytosis of dead neurons (primary microglia [2]; primary microglial cells, Torin with K161): did not abolish the increase in phagocytosis of dead neurons by K161
effect on K161-enhanced phagocytosis of dead neurons (BV2 cells [9]; BV2 cells, Torin with K161): did not abolish the increase in phagocytosis of dead neurons by K161
effect on K161-enhanced phagocytosis of dead neurons (SIM-A9 cells [13]): did not abolish the increase in phagocytosis of dead neurons by K161
